# Experimental data taken from patent US7642063B2, “Methods for targeting and killing glioma cells” (Auburn University, priority 2004, dated 2010).
# Assays:
# RG2 glioma cells [1] = test: Cytotoxicity by MTT assay on glioma cells; format: cell-based, rat; conditions: 10 or 100 uM, 48 hours incubation
# Procedure: (§1) Using glioma-selective sequences from the second family shown in FIG. 4 (and in FIG. 5(a)), a fusion molecule containing the same identical cell-targeting peptide coupled to a cell-killing peptide was designed and synthesized. Glioma cells (malignant cells originating from astrocytes) and normal astrocytes were treated with increasing concentrations (10 or 100 uM) of cytotoxic peptide alone, or cytotoxic peptide linked to the targeting peptide, i.e. the peptide drug, and cytotoxicity was evaluated by MTT assay (this assay measures cell viability).
# (§2) FIG. 5(b) further illustrates the cytotoxic effect of d(KLAKLAK)2(SEQ ID NO:4) and DSTK-GG-d(KLAKLAK)2(SEQ ID NO:5) peptides on the glioma cells and the normal astrocytes. RG2 glioma cells and normal rat astrocytes were plated in quadruplicate in 96-well plates for 24 hours. Increasing concentrations (10 or 100 uM) of cytotoxic peptide alone, d(KLAKLAK)2(SEQ ID NO:4), or cytotoxic peptide linked to targeting peptide, DSTK-GG-d(KLAKLAK)2(SEQ ID NO:5), were added to the cells for 48 hours incubation. Cytotoxicity of therapeutic peptides were evaluated by MTT assay.
# normal rat astrocytes = test: Cytotoxicity by MTT assay on normal astrocytes; format: cell-based; conditions: 10 or 100 uM, 48 hours incubation
# Procedure: as §1, §2
# RG2 glioma cells [2] = test: Detection of internalized phage particles by immunofluorescence microscopy (saponin+/saponin−); format: cell-based, rat; conditions: saponin-treated vs untreated RG2 cells
# Procedure: FIG. 5(a) illustrates the detection of internalized phage particles by immunofluorescence microscopy. RG2 glioma cells were grown on chamber slides and incubated with DSTKSGNM (SEQ ID NO:3) phage. In cells treated with saponin (saponin+) to permeabilize cell membranes, both internalized and extracellular bound phage particles were accessible for staining. Without saponin treatment (saponin−), FIG. 5(a) illustrates that only extracellular phage were available for detection. These slides were then processed for immunofluorescence microscopy with antibody against filed phage, followed by a fluorescein-conjugated secondary antibody to visualize phage particles.
Compound,"cytotoxic effect on glioma cells (MTT, cell viability) (RG2 glioma cells [1])","effect on normal astrocytes (MTT, cell viability) (normal rat astrocytes)",internalization of phage by cells (RG2 glioma cells [2])
"CC(C)C[C@@H](NC(=O)[C@H](N)CCCCN)C(=O)N[C@H](C)C(=O)N[C@H](CCCCN)C(=O)N[C@H](CC(C)C)C(=O)N[C@H](C)C(=O)N[C@H](CCCCN)C(=O)N[C@H](CCCCN)C(=O)N[C@H](CC(C)C)C(=O)N[C@H](C)C(=O)N[C@H](CCCCN)C(=O)N[C@H](CC(C)C)C(=O)N[C@H](C)C(=O)N[C@H](CCCCN)C(=O)O [cytotoxic peptide alone, d(KLAKLAK)2, reference compound]",no effect,"None of the peptides, with or without targeting, demonstrated any effect",
"CC(C)C[C@@H](NC(=O)[C@@H](CCCCN)NC(=O)CNC(=O)CNC(=O)[C@H](CCCCN)NC(=O)[C@@H](NC(=O)[C@H](CO)NC(=O)[C@@H](N)CC(=O)O)[C@@H](C)O)C(=O)N[C@H](C)C(=O)N[C@H](CCCCN)C(=O)N[C@H](CC(C)C)C(=O)N[C@H](C)C(=O)N[C@H](CCCCN)C(=O)N[C@H](CCCCN)C(=O)N[C@H](CC(C)C)C(=O)N[C@H](C)C(=O)N[C@H](CCCCN)C(=O)N[C@H](CC(C)C)C(=O)N[C@H](C)C(=O)N[C@H](CCCCN)C(=O)O [peptide drug, DSTK-GG-d(KLAKLAK)2]",clear cytotoxic effect,"None of the peptides, with or without targeting, demonstrated any effect",
DSTKSGNM [DSTKSGNM phage],,,internalized
